Consider two compounds from paper PMC5546207 (Cancer discovery, 2017).

The subject of one data set is patients. The note with it: cited from earlier work; for incidence of hyperglycemia: single agent.
The next data set in a line: Plasma pharmacokinetics. Type of data set: in vivo, human. The note with it: for AUC / Cmax / Tmax: human, plasma, oral; for AUC: AUCtau [mean ± standard deviation]; for Cmax: Cmax [mean ± standard deviation]; for Tmax: Tmax [median (range)].
Setting [1] is: 300 mg alpelisib at steady state, triple combination.
The mark [2] stands for this setting: 200 mg encorafenib at steady state, dual combination.
Setting [3] is: 200 mg encorafenib in the presence of 300 mg alpelisib, steady state, triple combination.

The structures appear in SMILES notation. Read-outs that look alike come from different tables or passages of the source.

What is called AUC is concentration integrated over time. Usually Cmax stands for the highest concentration seen after dosing. With `Cc1nc(NC(=O)N2CCC[C@H]2C(N)=O)sc1-c1ccnc(C(C)(C)C(F)(F)F)c1` [alpelisib], the incidence of hyperglycemia with patients (all grade, patients with solid tumors) is recorded as 47%; in the data set on patients (grade 3/4, patients with solid tumors) it was 24%. In “Plasma pharmacokinetics” (setting [1]), the area under the curve (AUC) was 25100 ng·h/mL. The Cmax in the data set “Plasma pharmacokinetics” (setting [1]) was determined as 2740 ± 520 ng/mL. Also, the “exposure affected by encorafenib and cetuximab” value in “Plasma pharmacokinetics” (triple-combination therapy group) was “not affected”.

The term Tmax denotes the time at which the peak concentration occurs. In the case of `COC(=O)N[C@@H](C)CNc1nccc(-c2cn(C(C)C)nc2-c2cc(Cl)cc(NS(C)(=O)=O)c2F)n1` [encorafenib], the “single agent MTD/RP2D” value in the data set on patients (first-in-human study) is 450 mg. Also, the “exposure vs dual-combination therapy group” value in the data set “Plasma pharmacokinetics” (200 mg encorafenib in the presence of 100 mg alpelisib) was “similar”. In “Plasma pharmacokinetics” (dual-combination therapy group), the “drug–drug interaction between encorafenib and cetuximab” value is “No evidence of drug–drug interaction”. For the same compound, in the data set “Plasma pharmacokinetics” (setting [2]), the AUC stood at 7170 ± 2890 ng·h/mL, the Cmax was 1430 ± 824 ng/mL and the Tmax is 2 h. Moreover, in the data set “Plasma pharmacokinetics” (setting [3]), the AUC turned out to be 12900 ng·h/mL, the Cmax stood at 2390 ± 2080 ng/mL and the Tmax was found to be 3 h.
